Counter-ions that a name gives are not always drawn.

The test system of the experiment is apamin-sensitive sites of the SK channels. Briefly: Competition binding between 125I-apamin and bis-tetrahydroisoquinoline derivatives on rat cortical synaptosomes. The settings on record: for % of 125I-apamin displaced at 10 μM: 10 μM compound, ±10 pM 125I-apamin, rat cortical synaptosomes, 1 h at 0° C.; for Ki / potential to interact with apamin-sensitive sites compared with NML: comparison in words with N-Methyl-Laudanosine; for Ki: separated stereoisomers, rat cortical apamin sensitive sites, 125I-apamin. As to the method: These experiments are used to evaluate the potency of the bis-tetrahydroisoquinoline derivatives to interact with the apamin-sensitive sites of the SK channels, the selected target for which a blockade is expected to be useful in the treatment of Alzheimer's disease, Parkinson's disease, schizophrenia, cognitive dysfunction, or depression. Two reference compounds are also tested for comparison
Rats (male Wistar, ±250 g) were killed by decapitation and the brains were quickly removed and kept on ice during dissection. Crude cortex was dispersed in 0.32 M sucrose by using a Pottero homogenizer. After a first centrifugation at 1500×g for 10 min, the supernatant was centrifuged at 25000×g for 10 min. The resulting pellet was dispersed in 5 mL 0.32 M sucrose to be aliquoted. Protein concentration was determined by the method of Hartree with bovine serum albumin as a standard.^36
The buffer consisted of a 10 mM Tris-HCl (pH 7.5) solution containing 5.4 mM KCl and 0.1% bovine serum albumin. The radioligand was ^125I-apamin (Perkin-Elmer, Specific activity 81.4 TBq mmol^−1). Glass fibre filters (Whatman GF/C) used in these experiments were coated for 1 h in 0.5% polyethylenimine and then washed with 2.5 mL of the ice-cold buffer just before use. Binding experiments were always terminated as follows. Aliquots were filtered under reduced pressure through Whatman filters. Filters were rapidly washed twice with 2.5 mL of buffer. The radioactivity remaining on the filter was evaluated with a Packard Tri-Carb 1600TR liquid scintillation analyser with an efficacy of 69%. ^125I-apamin binding to the filters was also estimated in the absence of synaptosomes. This binding was also substracted from the total binding. Curve fitting was carried out using GraphPad Prism.
Saturation Binding Experiments—Synaptosomes (0.2 mg of protein/mL) were incubated with increasing concentrations of ^125I-apamin (25 μL) with 975 μL of incubation buffer for 1 h at 0° C. Samples were then filtered on Whatman GF/C filter and the radioactivity was measured as described above. Non specific binding was determined in parallel experiments in the presence of an excess of unlabeled apamin (0.1 μM) and subtracted from the total binding to obtain the specific binding.
Competition Experiments between ^125I-apamin and Bis-tetrahydroisoquinoline derivatives—Synaptosomes (0.2 mg of protein/mL) were incubated for 1 h at 0° C. with ±10 pM of ^125I-apamin (25 μL) and nine concentrations of bis-tetrahydroisoquinoline derivatives (10^−4 to 10^−7 M). Non specific binding was determined in the presence of an excess of unlabeled apamin (0.1 μM). Samples were then filtered on Whatman filter and the radioactivity was measured as described above.

On to `COc1cc2c(cc1OC)C(Cc1ccc(CC3c4cc(OC)c(OC)cc4CCN3C)cc1)N(C)CC2` (stereo not shown) [Compound 4o, p-bis[1-(6,7-dimethoxy-2-methyl-1,2,3,4-tetrahydroisoquinolyl)]-xylene], for which the “% of 125I-apamin displaced at 10 μM” value is 90%.

A word on the Ki: it is a dissociation constant, usually derived from enzyme kinetics or from competition with a known ligand. Turning to `COc1cc2c(cc1OC)C(CCCCCC1c3cc(OC)c(OC)cc3CCN1C)N(C)CC2.Cl` (stereo not shown) [Compound 4f E1, 1,5-bis[1-(6,7-dimethoxy-2-methyl-1,2,3,4-tetrahydroisoquinolyl)]-pentane hydrochloride], the “Ki / potential to interact with apamin-sensitive sites compared with NML” value (from here on “Ki / potential to interact … compared with NML”) is given as “Ki superior to NML”. In addition, where the note is “listed as 4f E1, hydrochloride”, affinity was put at a Ki of 0.592 ± 0.014 µM.

In the case of `COc1cc2c(cc1OC)C(CCCC1c3cc(OC)c(OC)cc3CCN1C)N(C)CC2.Cl` (stereo not shown) [Compound 4d, 1,3-bis[1-(6,7-dimethoxy-2-methyl-1,2,3,4-tetrahydroisoquinolyl)]-propane hydrochloride], the “% of 125I-apamin displaced at 10 μM” value is listed as 82%.

In turn, `COc1cc2c(c(OC)c1OC)[C@@H](CCC[C@H]1c3c(cc(OC)c(OC)c3OC)CCN1C)N(C)CC2` [Compound 4g MESO, 1,3-bis[1-(6,7,8-trimethoxy-2-methyl-1,2,3,4-tetrahydroisoquinolyl)]-propane hydrochloride] came in with a Ki of 1.67 ± 0.077 µM.

Take `COc1cc2c(cc1OC)C(CCCCC1c3cc(OC)c(OC)cc3CCN1C)N(C)CC2.Cl` (stereo not shown) [Compound 4e E1, 1,4-bis[1-(6,7-dimethoxy-2-methyl-1,2,3,4-tetrahydroisoquinolyl)]-butane hydrochloride]: the “Ki / potential to interact … compared with NML” value is reported as “Ki superior to NML”. Moreover, where the note is “listed as 4e E1, hydrochloride”, the Ki was 0.588 ± 0.072 µM.

For the compound `COc1cc2c(cc1OC)C(CCCCC1c3cc(OC)c(OC)cc3CCN1C)N(C)CC2` (stereo not drawn) [Compound 4e MESO, 1,4-bis[1-(6,7-dimethoxy-2-methyl-1,2,3,4-tetrahydroisoquinolyl)]-butane hydrochloride], the Ki (listed as 4e MESO, hydrochloride) worked out at 1.07 ± 0.124 µM.

Consider `COc1cc2c(c(OC)c1OC)C(CCCCC1c3c(cc(OC)c(OC)c3OC)CCN1C)N(C)CC2.Cl` (stereo not drawn) [Compound 4h MESO, 1,4-bis[1-(6,7,8-trimethoxy-2-methyl-1,2,3,4-tetrahydroisoquinolyl)]-butane hydrochloride], for which the “Ki / potential to interact … compared with NML” value was “Ki superior to NML”. Further, the affinity (listed as 4h MESO, hydrochloride) corresponds to a Ki of 0.424 ± 0.033 µM.

The values are drawn from patent US20090093517A1, “BIS1,2,3,4-TETRAHYDROISOQUINOLINE DERIVATIVES AND THEIR USES AS PHARMACEUTICALS” (UNIVERSITE DE LIEGE, priority 2006, published 2009).
